The values below are quoted from earlier work in patent US20070254026A1, “SOFTGEL CAPSULES” (FORBES MEDI-TECH INC., priority 2006, published 2007).

The subject of the series is benign prostate hypertrophy. To be noted: Berges.2000; Coleman.2002.

Molecules are shown by their SMILES.

Take `CC[C@H](CC[C@@H](C)[C@H]1CC[C@H]2[C@@H]3CC=C4C[C@@H](O)CC[C@]4(C)[C@H]3CC[C@]12C)C(C)C` [sitosterol, β-sitosterol]: the “effective dose reducing symptoms of benign prostate hypertrophy” value is on record as 20 to 60 mg per day.
